{"source": "paper PMC12114840", "about": "“Exploring the Anticancer Properties of 1,2,3-Triazole-Substituted Andrographolide Derivatives” (Pharmaceuticals, 2025)", "key": {"A375 cells (melanoma)": {"tested_on": "A375 cells (melanoma)", "assay": "Sulforhodamine B (SRB) antiproliferative assay, A375", "type": "cell-based", "conditions": "Homo sapiens, A-375, A375, 48 h, mean ± SEM of four to six independent experiments", "description": "(§1) The antiproliferative properties of andrographolide and all prepared derivatives (2–26) were evaluated against a panel of different cancer cell lines, including human pancreatic ductal adenocarcinoma (PANC-1), colorectal adenocarcinoma (HCT116), melanoma (A375), breast adenocarcinoma (MCF-7) and a non-tumorigenic colon (CCD-18Co) cell line using the sulforhodamine B assay.\n(§2) Human breast adenocarcinoma MCF-7, pancreatic ductal adenocarcinoma PANC-1, melanoma A375, and non-tumorigenic colon CCD-18Co cell lines were purchased from ATCC (Rockville, MD, USA). Human colorectal adenocarcinoma HCT116 cells were kindly provided by B. Vogelstein (The Johns Hopkins Kimmel Cancer Center, Baltimore, MD, USA). Tumor cells were routinely cultured in RPMI-1640 medium with UltraGlutamine from Biowest (VWR, Carnaxide, Portugal) supplemented with 10% fetal bovine serum (FBS) from Biowest (VWR, Carnaxide, Portugal), except for the PANC-1 cells, which were grown in DMEM (4.5 g/L glucose) with stable L-glutamine and sodium pyruvate and supplemented with 10% FBS. The non-tumorigenic CCD-18Co cells were cultured in EMEM (Lonza, VWR, Carnaxide, Portugal), supplemented with 10% FBS. All cells were incubated at 37 °C in a humidified atmosphere of 5% CO2. Routine mycoplasma testing was performed using the MycoAlert™ PLUS mycoplasma detection kit (Lonza).\n(§3) For the evaluation of the compound effect on cell proliferation, human cell lines were seeded in 96-well plates at a density of 5.0 × 10^3 (HCT116, MCF-7, PANC-1, A375, and CCD-18Co) cells per well, for 24 h. Cells were then treated with serial dilutions of the compound (ranging from 0.63 to 30 µM), for an additional 48 h incubation period. The growth inhibitory effects were assessed by SRB assay, as described in [58], and the half-maximal inhibitory concentration (IC50 values) were determined for each cell line using the GraphPad Prism software version 7.0 (La Jolla, CA, USA). Culture medium containing a maximum of 0.05% dimethyl sulfoxide (DMSO) was used as negative control."}, "PANC-1 cells [1]": {"tested_on": "PANC-1 cells", "assay": "Annexin V-FITC/PI double-staining apoptosis assay", "type": "cell-based, human", "conditions": "48 h", "source_text": "To further investigate the mechanism of action of the triazole derivative 12, an apoptosis analysis was subsequently performed in PANC-1 cells. The early stages of apoptosis are characterized by the disruption of membrane asymmetry and the translocation of phosphatidylserine from the inner to the outer leaflet of the plasma membrane, which can be detected using Annexin V-FITC, a protein with high affinity for phosphatidylserine. In the later stages of apoptosis, the cell membrane loses its integrity, allowing propidium iodide (PI) to penetrate into the cell. Thus, PANC-1 cells treated with compound 12 at 3 and 6 μM for 48 h were analyzed by flow cytometry after Annexin V-FITC and PI staining (Figure 1B, bottom panel; and Figure 1D). This analysis can distinguish and quantify viable cells (annexin V−, PI−), early apoptotic cells (annexin V+, PI−), late apoptotic cells (annexin V+, PI+), and necrotic cells (annexin V−/PI+). […] Cleavage of PARP-1 into an 89 kDa protein, cleaved PARP-1, occurs during programmed cell death (apoptosis) as a result of proteolytic processing by active caspase-3. Thus, cleaved PARP-1 is recognized as a marker of apoptosis.\n(§4) The analyses were performed as described in the literature. In particular, 1.5 × 10^5 PANC-1 cells/well were seeded in 6-well plates and allowed to adhere overnight, followed by treatment with 3 µM and 6 µM of compound 12 for 48 h. For cell cycle analysis, cells were stained with propidium iodide (Sigma-Aldrich) and subjected to flow cytometry. Cell cycle phases were identified and quantified using the FlowJo X 10.0.7 software (Treestar, Ashland, OR, USA). For apoptosis analysis, cells were stained using the Annexin V-FITC Apoptosis Detection Kit I from BD Biosciences (Enzifarma, Porto, Portugal), according to the manufacturer’s instructions. The Accuri^TM C6 flow cytometer and the BD Accuri C6 software (BD Biosciences, Heidelberg, Germany) were used."}, "p21": {"tested_on": "p21", "assay": "Western blot, p21", "type": "cell-based, human", "conditions": "PANC-1, 3 and 6 μM, 48 h", "description": "(§5) To elucidate the antiproliferative activity of compound 12, cell cycle analysis was performed in the PANC-1 cancer cell line. The cell cycle is a highly controlled process where cellular DNA is replicated and then equally partitioned in two daughter cells. The cell cycle is composed of two distinct phases: the interphase, where the cell grows and undergoes three distinct periods—the G1 (pre-DNA synthesis), S (DNA synthesis), and G2 (pre-division) phases—and mitosis, where cell undergoes division. The newly formed daughter cells then enter the preparatory phases of interphase, and start the G0 phase (quiescence). […] Thus, PANC-1 cells were treated with compound 12 at 3 and 6 µM for 48 h and then analyzed by flow cytometry (Figure 1B,C).\nPANC-1 (1.5 × 10^5 cells/well) were seeded in six-well plates, allowed to adhere overnight, and treated with 3 µM and 6 µM of compound 12 for 48 h. Protein lysates were obtained in RIPA buffer with protease inhibitors (Sigma-Aldrich, Lisbon, Portugal) and quantified using Pierce® bicinchoninic acid (BCA) protein assay reagents (Thermo Fisher Scientific, Porto Salvo, Portugal). […] The signal was detected with enhanced chemiluminescence (ECL) (Amersham, GE Healthcare Life Sciences, Enzymatic, Portugal) using the ChemiDoc^TM MP Imaging system (BioRad Laboratories, Amadora, Portugal)."}, "[2]": {"tested_on": "MCF-7 cells (breast adenocarcinoma)", "assay": "Sulforhodamine B (SRB) antiproliferative assay, MCF-7", "type": "cell-based", "conditions": "Homo sapiens, MCF7, MCF-7, 48 h, mean ± SEM of four to six independent experiments", "description": "as §1, §2, §3"}, "PANC-1 cells [3]": {"tested_on": "PANC-1 cells", "assay": "Drug combination assay with 5-fluorouracil (SRB, CompuSyn)", "type": "cell-based, human", "conditions": "PANC-1, 48 h", "method": "Using the CompuSyn software (version 1.0), a multiple drug effect analysis was performed for each combination, to determine combination index (CI) and dose-reduction index (DRI) values. CI values indicate the effect of combining multiple drugs as synergistic (CI < 1), additive (CI = 1), or antagonistic (CI > 1). DRI values represent the fold decrease in the dose of a drug needed when in combination to achieve the same efficacy as the drug alone. DRI values > 1 are favorable given the concern for toxicity when combining multiple drugs.\nThe effect on cell proliferation was analyzed by SRB assay. […] Synergistic interactions of drugs were indicated as CI < 1, antagonist interactions as CI > 1.1, and additive effects as 1 < CI < 1.1."}, "PANC-1 cells [4]": {"tested_on": "PANC-1 cells", "assay": "Cell cycle analysis by flow cytometry (propidium iodide)", "type": "cell-based, human", "conditions": "PANC-1, 3 μM and 6 μM, 48 h", "description": "as §5\nas §4, with “The Accuri^TM C6 flow cytometer and the BD Accuri C6 software (BD Biosciences, Heidelberg, Germany) were used.” left out"}}, "data": [{"smiles": "C=C1CC[C@@H]2[C@](C)(COC(C)=O)[C@H](OC(C)=O)CC[C@@]2(C)[C@@H]1C[C@H](C1=CCOC1=O)n1cc(-c2ccc(Br)cc2)nn1", "note": "[Compound 12, (12R)-4-bromophenyl-1,2,3-triazole-3,19-diacetoxy-14-deoxy-andrographolide]", "values": [{"measurement": "IC50", "setting": "A375 cells (melanoma)", "value": 1.7, "unit": "µM"}, {"measurement": "viability at 3 µM", "setting": "PANC-1 cells [1]; Homo sapiens, PANC-1, 3 µM, read-out: viable cells (annexin-V−, PI−; Q4)", "value": 79.7, "unit": "%"}, {"measurement": "viability at 6 µM", "setting": "PANC-1 cells [1]; Homo sapiens, PANC-1, 6 µM, read-out: viable cells (annexin-V−, PI−; Q4)", "value": 68.4, "unit": "%"}, {"measurement": "early apoptotic cells (annexin V+, PI−; Q3)", "setting": "PANC-1 cells [1]; PANC-1, 3 µM", "value": 7.08, "unit": "%"}, {"measurement": "late apoptotic cells (annexin V+, PI+; Q2)", "setting": "PANC-1 cells [1]; PANC-1, 3 µM", "value": 10.2, "unit": "%"}, {"measurement": "percentage of apoptotic cells (Annexin V+)", "setting": "PANC-1 cells [1]; PANC-1, 3 µM", "value": 17.28, "unit": "%"}, {"measurement": "early apoptotic cells (annexin V+, PI−; Q3)", "setting": "PANC-1 cells [1]; PANC-1, 6 µM", "value": 13.3, "unit": "%"}, {"measurement": "late apoptotic cells (annexin V+, PI+; Q2)", "setting": "PANC-1 cells [1]; PANC-1, 6 µM", "value": 13.5, "unit": "%"}, {"measurement": "percentage of apoptotic cells (Annexin V+)", "setting": "PANC-1 cells [1]; PANC-1, 6 µM", "value": 26.8, "unit": "%"}, {"measurement": "expression of p21", "setting": "p21", "value": "increased the expression of p21 in a dose-dependent manner"}, {"measurement": "IC50", "setting": "[2]", "value": "6.8 ± 0.3", "unit": "µM"}, {"measurement": "combination index (CI)", "setting": "PANC-1 cells [3]; 5-FU 3.75 µM + 1.35 µM of compound 12", "value": 0.87}, {"measurement": "combination index (CI)", "setting": "PANC-1 cells [3]; 5-FU 7.5 µM + 1.35 µM of compound 12", "value": 0.90}, {"measurement": "G2/M population compared to the control", "setting": "PANC-1 cells [4]", "value": "significant increase in the G2/M population"}]}]}
